Assay results as given in the NIST ThermoML archive (doi:10.1016/j.jct.2006.07.023).
Where “and” joins values, the source holds several entries; their conditions need not be identical. Identical values can stand only once. ± gives the expanded uncertainty stated by the source.

Experiments:
[1] = DTA
[2] = Molar enthalpy of transition or fusion; settings: DSC

| Structure (SMILES) | Triple point temperature ([1]; Crystal) | Glass transition temperature [1] [°C] | Molar enthalpy of transition or fusion ([2]; Crystal) | Triple point temperature ([1]; Metastable crystal) [K] | Molar enthalpy of transition or fusion ([2]; Metastable crystal) [kcal/mol] |
| --- | --- | --- | --- | --- | --- |
| CC(=O)[O-].CC(=O)[O-].[Pb+2] [lead(2+) acetate] | 452.3 ± 1.6 K | 41.2 ± 3 | 3.78 ± 0.0956 kcal/mol |  |  |
| CCCC(=O)[O-].CCCC(=O)[O-].[Pb+2] [lead(2+) dibutanoate] | 346.5 ± 0.7 K and 346.3 ± 0.9 K | 1.8 ± 3 | 3.51 kcal/mol and 3.49 kcal/mol | 322.8 ± 1.1 | 1.84 ± 0.191 |
| CCC(=O)[O-].CCC(=O)[O-].[Pb+2] [lead(2+) dipropanoate] | 398.1 ± 1.1 K | 25 ± 3 | 3.13 ± 0.0956 kcal/mol |  |  |
